# Results as given in publication PMC6588349 (eLife, 2019).
# Entries after “also recorded” stand apart in the source; their conditions may differ. Where two headings read alike, the source gives them in different places.
# Experiments:
# SNAP-mGluR2-TMD = target: T1, SNAP-mGluR2-TMD (Rattus norvegicus, UniProt P31421); assay: Single-molecule pulldown (SiMPull) photobleaching step counting, SNAP-mGluR2-TMD; conditions: 10 µM LY48, 1 µM BINA, 10 µM Ro 64, 1 µM MNI 137
# T1 construct: mGluR2-TMD (rat) starts at Q558; expressed in transfected cells; host or cells: HEK 293T
# Description: Photobleaching step analysis of individual complexes allows for precise determination of receptor stoichiometry and, unlike FRET or BRET-based methods, this assay is not sensitive to conformation or relative fluorophore orientation. […] However, this work relied on GFP-tagged receptors which leads to a lysate that contains both surface-targeted and intracellular receptors, potentially including immature or partially degraded protein that can confound analysis.
# To restrict our analysis to surface-targeted receptors, we expressed N-terminally SNAP-tagged receptor variants and labeled them with membrane-impermeable fluorophores.
# To test this, we incubated SNAP-mGluR2-TMD expressing cells and lysates with PAMs or NAMs during the SiMPull experiment.
# Briefly, to prevent non-specific sticking of proteins, flow chambers were prepared with mPEG-passivated glass slides and coverslips doped with ~1% biotinylated mPEG, as previously described. Prior to each experiment, chambers were incubated with 0.2 mg/mL NeutrAvidin (ThermoFisher) for 2 min followed by 10 nM of a biotinylated anti-HA antibody (abcam ab26228) for 20–30 min. After each conjugation step, the chambers were washed with T50 buffer (50 mM NaCl, 10 mM Tris, pH 7.5).
# After labeling, cells were dissociated from coverslips by incubating with Ca^2+-free PBS for 20 min followed by gentle pipetting. […] Following 1 hr of lysis at 4°C, cells were centrifuged at 16,000 g for 20 min before the supernatant was collected and maintained on ice. The cell lysate was diluted in a 0.1% detergent dilution buffer to obtain sparse immobilization of labeled protein on the passivated slide. After obtaining an optimal density of immobilized protein, the flow chamber was washed with dilution buffer to remove unbound protein. For SiMPull experiments with PAMs and NAMs, drugs were added to cells during the dissociation step (after dye labeling), and maintained throughout the cell lysis and entire experiment.
# Single molecules were imaged with a 100x objective on an inverted microscope (Olympus IX73) in total internal reflection fluorescence (TIRF) mode. Images were taken with an scMOS camera (Hamamatsu ORCA-Flash4v3.0) at 20 Hz with 50 ms exposures. […] Multiple independent experiments were performed for each condition. […] A SNAP-tag labeling efficiency of ~80% was used to calculate the proportion of dimers and monomers. Occasional co-localization of two proteins within a diffraction limited spot along with antibody and NeutrAvidin bivalency both make a small contribution to >1 step photobleaching, leading to a background % two-step bleaching level of ~5–10%. All data were produced from at least two separate transfections/protein preparations for each condition.
# [1] = target: T2, SNAP-mGluR2 (full-length) (Rattus norvegicus, UniProt P31421); assay: Inter-LBD FRET assay with full-length SNAP-mGluR2; type: cell-based; conditions: saturating concentrations; for direct effect on inter-LBD FRET (no orthosteric agonist for modulators): drug applied alone; for effect on inter-LBD FRET response to DCG-IV: agonist DCG-IV
# T2 construct: HEK 293T cells expressing full-length mGluR2; expressed in transfected cells; host or cells: HEK 293T
# Description: We next sought to further probe the variation in PAM-induced inter-TMD FRET changes. […] We used an inter-LBD FRET assay to assess the relative strength of allosteric modulation by different mGluR2 PAMs. Agonists induce a decrease in FRET between fluorophore-conjugated N-terminal SNAP- and CLIP-tags (Figure 4E). […] We tested this effect for all PAMs by applying a saturating concentration of DCG-IV followed by co-application of a saturating concentration of each PAM, which produced further FRET decreases (Figure 4F,G).
# Fluorophores were diluted in EX solution, which was also used to wash coverslips following labeling and prior to mounting on the microscope. After labeling, cells were mounted on an inverted microscope (Olympus IX73) and imaged with a 60x objective. […] Clusters of cells were analyzed together using ImageJ and FRET was calculated as FRET=(IAcceptor)/(IDonor +IAcceptor) where I is fluorescence intensity. No corrections were made for bleed-through between channels or the contribution of donor-donor or acceptor-acceptor dimers as analysis was limited to relative FRET changes between drug treatments rather than absolute FRET values. […] FRET changes calculated for dose–response curves were normalized to the response to saturating […] applied within the same recording and dose–response curves were obtained from multiple cell clusters and averaged from at least three separate experiments. Dose–response curves were fit using Prism (Graphpad). All drugs were purchased from Tocris, prepared in EX solution, and delivered with a gravity-driven perfusion system. For kinetics measurements a pressurized perfusion system (Automate Scientific) was used to produce a flow rate of 0.5 mL/s. Kinetic analysis was performed in Microsoft Excel. The time between 10% and 90% FRET increase or decrease was determined manually. For photo-bleaching/donor-recovery experiments, images were taken in donor and acceptor channels at baseline and again followed by a 1 min exposure to 640 nm laser illumination at maximum intensity. All experiments were performed at room temperature. All data were produced from at least two separate transfections for each condition.
# [2] = target: T3, full-length mGluR2 (SNAP-mGluR2) (Rattus norvegicus, UniProt P31421); assay: GIRK activation assay, whole cell patch clamp, HEK 293T cells expressing full-length mGluR2; type: cell-based; conditions: for effect on basal GIRK current in the absence of glutamate: NAM alone, HEK 293T cells expressing GIRK and full-length mGluR2
# T3 construct: HEK 293T cells expressing full-length mGluR2; expressed in transfected cells; host or cells: HEK 293T
# Procedure: Cells were cultured in DMEM with 5% FBS on poly-L-lysine-coated glass coverslips. DNA plasmids were transfected into cells using Lipofectamine 3000 (Thermo Fisher). […] For single-molecule pulldown (SiMPull) experiments, cells were transfected with 0.7 μg DNA of HA and SNAP-tagged receptor constructs, unless otherwise noted.
# Whole-cell patch clamp recordings from single isolated cells were performed 24–36 hr after transfection in a high-potassium extracellular solution containing (in mM): 120 KCl, 29 NaCl, 1 MgCl2, 2 CaCl2 and 10 HEPES, pH 7.4. Cells were voltage clamped to −60 mV using an Axopatch 200B amplifier (Axon Instruments) and membrane currents were recorded. Glass pipettes of resistance between 3 and 8 MΩ were filled with intracellular solution containing (in mM): 140 KCl, 10 HEPES, 3 Na2ATP, 0.2 Na2GTP, 5 EGTA and 3 MgCl2, pH 7.4. Data were acquired with a 2 kHz acquisition rate and filtered with the amplifier 4-pole Bessel filter at 1 kHz. Drugs were prepared in extracellular solution and applied using a gravity-driven perfusion system. Data were analyzed with Clampfit (Molecular Devices) and Prism (GraphPad). Data for all conditions came from at least two separate transfections.
# T2 sequence (P31421 19-872): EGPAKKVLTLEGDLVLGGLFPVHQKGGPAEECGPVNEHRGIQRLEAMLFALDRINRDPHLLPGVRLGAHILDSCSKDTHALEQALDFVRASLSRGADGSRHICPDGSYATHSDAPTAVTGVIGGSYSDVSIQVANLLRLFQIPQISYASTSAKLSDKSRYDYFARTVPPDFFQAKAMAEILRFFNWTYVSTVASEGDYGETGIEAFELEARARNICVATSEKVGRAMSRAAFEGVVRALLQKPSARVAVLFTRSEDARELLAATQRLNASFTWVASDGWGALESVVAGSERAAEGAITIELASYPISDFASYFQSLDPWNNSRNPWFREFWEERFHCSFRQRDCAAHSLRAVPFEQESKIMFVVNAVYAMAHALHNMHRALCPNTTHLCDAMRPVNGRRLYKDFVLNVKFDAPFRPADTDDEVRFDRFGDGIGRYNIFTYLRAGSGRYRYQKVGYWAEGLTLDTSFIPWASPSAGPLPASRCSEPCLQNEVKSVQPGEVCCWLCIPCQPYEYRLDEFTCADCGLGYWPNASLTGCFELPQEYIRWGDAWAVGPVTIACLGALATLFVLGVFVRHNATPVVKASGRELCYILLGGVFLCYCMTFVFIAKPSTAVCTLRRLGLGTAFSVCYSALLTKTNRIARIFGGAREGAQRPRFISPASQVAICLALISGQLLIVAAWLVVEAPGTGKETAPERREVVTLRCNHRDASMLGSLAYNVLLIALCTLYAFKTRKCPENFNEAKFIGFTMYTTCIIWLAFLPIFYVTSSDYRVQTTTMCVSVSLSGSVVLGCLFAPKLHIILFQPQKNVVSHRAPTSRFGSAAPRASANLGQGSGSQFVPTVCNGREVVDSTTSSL
# T3 sequence (P31421 19-872): as above
# T1 sequence (P31421 558-872 limits assumed): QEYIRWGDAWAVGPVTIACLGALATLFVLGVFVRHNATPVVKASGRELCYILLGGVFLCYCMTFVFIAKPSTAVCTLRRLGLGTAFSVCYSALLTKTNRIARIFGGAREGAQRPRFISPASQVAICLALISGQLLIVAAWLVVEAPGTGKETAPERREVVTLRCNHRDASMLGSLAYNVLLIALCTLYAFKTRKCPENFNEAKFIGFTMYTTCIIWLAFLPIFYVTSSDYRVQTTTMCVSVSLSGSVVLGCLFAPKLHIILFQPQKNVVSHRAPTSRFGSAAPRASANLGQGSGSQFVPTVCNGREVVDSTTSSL
SMILES,higher order complexes with >3 bleaching steps in presence of drug (SNAP-mGluR2-TMD) [%],two-step photobleaching events of SNAP-mGluR2-TMD in presence of drug (SNAP-mGluR2-TMD),direct effect on inter-LBD FRET (no orthosteric agonist for modulators) [1],effect on the glutamate-sensitivity of mGluR2 (GIRK) ([2]; 50 nM LY48),highest concentration that did not produce a GIRK response on its own ([2]; full-length mGluR2) [nM],"reversibility of GIRK currents after washout ([2]; full-length mGluR2, up to 10 min of washout)","EC50 ([2]; mGluR2-WT, read-out: GIRK activation EC50 (approximate)) [nM]","maximal PAM-induced GIRK activation relative to glutamate ([2]; mGluR2-WT, relative to saturating glutamate)","GIRK current time 10% to 90% ([2]; saturating: 10 µM LY48, 1 mM Glutamate) [s]","EC50 ([2]; wild-type SNAP-mGluR2, HEK 293T, PAM alone, normalized to saturating glutamate, mean ± s.e.m., read-out: GIRK activation EC50) [nM]",effect on inter-LBD FRET response to DCG-IV [1],effect on basal GIRK current in the absence of glutamate [2],"effect of co-application on LY48-induced GIRK activation ([2]; co-applied with LY48, saturating concentration for LY341495)"
COc1ccccc1Oc1ccc(N(Cc2cccnc2)S(=O)(=O)CC(F)(F)F)cc1 [LY48],< 10,40–45%,no effect on FRET level; also recorded: unable to directly induce LBD closure,no effect on the glutamate-sensitivity of mGluR2,50,fully-reversible currents,~300,~ 70%,14.3 ± 3.5,230 ± 40,,,
N#Cc1cc(C2=Nc3ccc(Br)cc3NC(=O)C2)ccn1 [MNI 137],< 10,40–45%,did not alter the basal inter-LBD FRET,,,,,,,,partial antagonism,no effect on basal current,blocked
Clc1cccc(Cl)c1/C(=C/n1cncn1)OC1CCCCCC1 [Ro 64],< 10,40–45%,did not alter the basal inter-LBD FRET,,,,,,,,partial antagonism,small but clear outward current,
